Two compounds from patent EP4663242A1, “TARGETING THE ENERGY COUPLING FACTOR (ECF) TRANSPORTERS AS NOVEL ANTIMICROBIAL TARGET” (Helmholtz-Zentrum für Infektionsforschung GmbH, priority 2024, dated 2025) can be followed below.

Experiment [1] deals with ECF-FoIT2. The experiment is described as follows: Uptake assay into proteoliposome (radiolabelled folate uptake). It is filed as biochemical, L. delbrueckii. The note with it: folate uptake into proteoliposomes, n = 2, mean ± SD. Here is the method:
In summary, both 1 and 22 are capable of inhibiting the ECF-FoIT2 in a proteoliposome-based uptake assay which further complements the results obtained from the whole-cell uptake assay. Table 4. Relative inhibition of ECF-FoIT2 in proteoliposome uptake assay
4.3.2. Uptake assay into proteoliposome
This assay was performed based on the protocol reported by Swier et al. with minor modifications.^18

The subject of experiment [2] is Streptococcus pneumoniae DSM-20566. The experiment is described as follows: MIC screening against Gram-positive pathogens. It is filed as cell-based. The following applies: 37 °C, 24 h. Here is the method: (§1) 4.3.3. Screening against clinically relevant Gram-positive pathogens.
(§2) All microorganisms were obtained from the German Collection of Microorganisms and Cell Cultures (DSMZ) and were handled according to standard procedures. Bacteria were inoculated into tryptic soy broth (TSB) to obtain a final inoculum of […] colony-forming units (CFU)/mL. The tested compounds were prepared as DMSO stocks (20 mM). Serial dilutions of derivatives in the growth medium (0.06 to 128 µM) were prepared in sterile 96-well plates, and the bacterial suspensions were added. Growth inhibition was assessed after static incubation at 37 °C for 24 h. S. pneumoniae was grown at 5% CO2. MIC values are defined as the lowest compound concentration where no visible growth is observed.

Experiment [3] deals with Enterococcus faecalis DSM-20477. The experiment is described as follows: MIC screening against Gram-positive pathogens. It is filed as cell-based. Here is the method: as §1, §2
The subject of experiment [4] is S. pneumoniae DSM-11865. The experiment is described as follows: MIC screening against Gram-positive pathogens. It is filed as cell-based. The note with it: Streptococcus pneumoniae. Here is the method: as §1, §2
Experiment [5] has as its system E. faecium DSM-20478. The experiment in a line: MIC screening against Gram-positive pathogens. The note with it: Enterococcus faecium. The format is cell-based. Here is the method:
as §1, §2

In experiment [6] the test system is E. faecium DSM-17050. The experiment in a line: MIC screening against Gram-positive pathogens. The format is cell-based. The following applies: Enterococcus faecium. The procedure:
as §1, §2

In brackets after ≈: the same amount, converted by molar mass. Several values for one entry are separate records, joined by “and”; a condition that tells them apart may be missing. Equal entries are not always repeated. Where two headings read alike, the source gives them in different places. A value given as a limit tells only on which side of the number the result lay.

Consider `O=C(O)c1cccc(-c2nc(-c3ccc(Cl)c(Cl)c3)c(-c3cccc(C(F)(F)F)c3)o2)c1` [Compound 22, 3-(4-(3,4-Dichlorophenyl)-5-(3-(trifluoromethyl)phenyl)oxazol-2-yl)benzoic acid], for which, in experiment [1], the “Relative inhibition (%) at 150 µM” value was 95% and 95 ± 1%. Further, the MIC (usually the lowest concentration that inhibits growth of the organism) in experiment [2] (DSM20566, TSB, 5% CO2, read-out: MIC) was 0.5 to 1 µM (≈ 0.239 to 0.478 µg/mL); in experiment [2] (TSB, 5% CO2), 0.5 to 1 µM; in experiment [3] (DSM20477, Enterococcus faecalis DSM-20477, TSB, 37 °C, 24 h, read-out: MIC), 4 µM (≈ 1.91 µg/mL); in experiment [4] (DSM11865, S. pneumoniae DSM-11865, penicillin-resistant strain, TSB, 37 °C, 24 h, 5% CO2, read-out: MIC), 0.5 to 1 µM (≈ 0.239 to 0.478 µg/mL); in experiment [5] (DSM20478, E. faecium DSM-20478, TSB, 37 °C, 24 h, read-out: MIC), 4 µM (≈ 1.91 µg/mL); in experiment [6] (DSM17050, E. faecium DSM-17050, vancomycin-resistant strain, TSB, 37 °C, 24 h, read-out: MIC), 2 µM (≈ 0.957 µg/mL).
Turning to `O=C(O)CCc1nc(-c2ccc(Cl)cc2)c(-c2ccccc2)o1` [Compound 1, 3-(4-(4-Chlorophenyl)-5-phenyloxazol-2-yl)propanoic acid], the “Relative inhibition (%) at 150 µM” value in experiment [1] was 44% and 44 ± 2%. Moreover, the MIC was over 128 µM in experiment [3] (Enterococcus faecalis, DSM20477, 24 h); over 128 µM in experiment [4] (DSM11865, 24 h); over 128 µM in experiment [5] (DSM20478, 24 h); over 128 µM in experiment [6] (DSM17050, 24 h).
